The format of data set [1] is in vivo, human. The following applies: for Total AUC: extrapolated to infinity; for half-life: both, human, plasma, oral, t½; for Cmax ratio (Day2) / (Day1), arithmetic mean / Cmax ratio (Day2) / (Day1), geometric mean / Cmax ratio (Day6) / (Day1), arithmetic mean / Cmax ratio (Day6) / (Day1), geometric mean / Total AUC ratio (Day2) / (Day1), arithmetic mean / Total AUC ratio (Day2) / (Day1), geometric mean / Total AUC ratio (Day6) / (Day1), arithmetic mean / Total AUC ratio (Day6) / (Day1), geometric mean / Truncated AUC ratio (Day2) / (Day1), arithmetic mean / Truncated AUC ratio (Day2) / (Day1), geometric mean / Truncated AUC ratio (Day6) / (Day1), arithmetic mean / Truncated AUC ratio (Day6) / (Day1), geometric mean: favipiravir co-administration vs control; for Truncated AUC: 0–12 h.

Data set [2] is classed as in vivo, human.
The test system of data set [3] is acetaminophen glucuronide formation (pooled human hepatic S9). In words: Inhibition of acetaminophen glucuronide formation in pooled human hepatic S9. It counts as in vitro ADME. As to conditions: pooled human hepatic S9, acetaminophen 2 mM; favipiravir up to 3000 µM, T-705M1 3–300 µM.
In data set [4] the test system is acetaminophen sulfate formation (sulfation). In words: Inhibition of acetaminophen sulfate formation in pooled human hepatic S9. It counts as in vitro ADME. As to conditions: both, pooled human hepatic S9, probe acetaminophen (2 mM).
The mark [5] stands for this setting: Day 2, + acute favipiravir, mean (± SE), n = 28.
[6] abbreviates: Day 6, + extended favipiravir, mean (± SE), n = 28.
Setting [7] is: 650 mg, Day 1, acetaminophen alone (control), mean (± SE), n = 28.
[8] abbreviates: Day 1, acetaminophen alone (control), mean (± SE), n = 28.

“Also recorded” adds a separate entry of the source. Counter-ions that a name gives are not always drawn. Like-named read-outs stand apart in the source and are kept apart here. Marks after values point to notes of the source that are not given here.

One may read the half-life as the time needed for the level to fall by half in the phase considered. Turning to `CC(=O)Nc1ccc(O[C@@H]2O[C@H](C(=O)O)[C@@H](O)[C@H](O)[C@H]2O)cc1` [Acetaminophen glucuronide], in data set [1] (setting [5]), the “Total AUC” value is recorded as 99.3 (± 5.1) µg ml^–1 h and the half-life was 210 min. In addition, in data set [1] (setting [6]), the “Total AUC” value is listed as 109.0 (± 7.1) µg ml^–1 h. The compound also showed a half-life in data set [1] (setting [7]) of 198 min. In data set [1], the “Cmax ratio (Day2) / (Day1), arithmetic mean” value is 1.19*; the “Cmax ratio (Day2) / (Day1), geometric mean” value was 1.18; the “Cmax ratio (Day6) / (Day1), arithmetic mean” value is reported as 1.26*; the “Cmax ratio (Day6) / (Day1), geometric mean” value is 1.22. Besides, in data set [1], the “Total AUC ratio (Day2) / (Day1), arithmetic mean” value is 1.23*; the “Total AUC ratio (Day2) / (Day1), geometric mean” value worked out at 1.22; the “Total AUC ratio (Day6) / (Day1), arithmetic mean” value is on record as 1.35*; the “Total AUC ratio (Day6) / (Day1), geometric mean” value was 1.32. In data set [1], the “Truncated AUC ratio (Day2) / (Day1), arithmetic mean” value is given as 1.23*; the “Truncated AUC ratio (Day2) / (Day1), geometric mean” value is recorded as 1.21; the “Truncated AUC ratio (Day6) / (Day1), arithmetic mean” value is 1.34*; the “Truncated AUC ratio (Day6) / (Day1), geometric mean” value came out at 1.31.
With `CC(=O)Nc1ccc(OS(=O)(=O)O)cc1` [Acetaminophen sulfate], the Cmax in data set [1] (Day 1, acetaminophen 650 mg oral alone (control), mean (± SE), n = 28) is recorded as 4.8 (± 0.4) µg ml^–1. Besides, in data set [1] (Day 1, acetaminophen 650 mg oral alone (control), n = 28), the tmax is reported as 1.00 (± 0.33) h. Also, in data set [1] (setting [8]), the “Truncated AUC” value is recorded as 22.4 (± 1.7) µg ml^–1 h and the t½ was 3.4 (± 0.1) h. Also, in data set [1] (setting [5]), the “Truncated AUC” value is 16.0 (± 1.3) µg ml^–1 h, the “Total AUC” value is listed as 21.2 (± 2.1) µg ml^–1 h and the t½ is on record as 5.5 (± 0.6) h. Moreover, in data set [1] (Day 2, acetaminophen 650 mg oral + acute favipiravir, n = 28), the tmax is on record as 1.51 (± 0.1) h. In data set [1] (setting [6]), the “Truncated AUC” value is 14.6 (± 1.6) µg ml^–1 h, the “Total AUC” value is recorded as 20.1 (± 2.3) µg ml^–1 h and the t½ is reported as 5.3 (± 0.4) h. In addition, in data set [1] (Day 6, acetaminophen 650 mg oral + extended favipiravir, n = 28), the tmax was 1.27 (± 0.09) h. Further, in data set [1], the “Cmax ratio (Day2) / (Day1), arithmetic mean” value is 0.52*; the “Cmax ratio (Day2) / (Day1), geometric mean” value came out at 0.51; the “Cmax ratio (Day6) / (Day1), arithmetic mean” value is listed as 0.52*; the “Cmax ratio (Day6) / (Day1), geometric mean” value stood at 0.47. Also, in data set [1], the “Total AUC ratio (Day2) / (Day1), arithmetic mean” value is on record as 0.84*; the “Total AUC ratio (Day2) / (Day1), geometric mean” value stood at 0.8; the “Total AUC ratio (Day6) / (Day1), arithmetic mean” value is reported as 0.81; the “Total AUC ratio (Day6) / (Day1), geometric mean” value amounted to 0.72. Further, in data set [1], the “Truncated AUC ratio (Day2) / (Day1), arithmetic mean” value is reported as 0.71*; the “Truncated AUC ratio (Day2) / (Day1), geometric mean” value is reported as 0.7; the “Truncated AUC ratio (Day6) / (Day1), arithmetic mean” value is on record as 0.65*; the “Truncated AUC ratio (Day6) / (Day1), geometric mean” value is recorded as 0.6. Besides, the “Projected total urinary excretion” value in data set [2] (Day 1, acetaminophen 650 mg alone (control), mean (± SE), n = 28) was 22 (± 2) % of dose.
In the case of `CC(=O)Nc1ccc(O)cc1` [Acetaminophen, reference compound], in data set [1] (setting [5]), the “Total AUC” value was 39.3 (± 3.1) µg ml^–1 h and the half-life was 180 min. Besides, the “Total AUC” value in data set [1] (setting [6]) is recorded as 37.4 (± 2.5) µg ml^–1 h. Also, the “Effect of favipiravir co-administration on Cmax” value in data set [1] (acute (day 2) and extended (day 6) favipiravir vs day 1) was “not significantly changed; also recorded: no significant effect”. Besides, the half-life in data set [1] (setting [7]) is 168 min. In data set [1], the “Cmax ratio (Day2) / (Day1), arithmetic mean” value was found to be 1.07; the “Cmax ratio (Day2) / (Day1), geometric mean” value is given as 1.03; the “Cmax ratio (Day6) / (Day1), arithmetic mean” value was 1.17; the “Cmax ratio (Day6) / (Day1), geometric mean” value was 1.08. In data set [1], the “Total AUC ratio (Day2) / (Day1), arithmetic mean” value is given as 1.20*; the “Total AUC ratio (Day2) / (Day1), geometric mean” value came to 1.17; the “Total AUC ratio (Day6) / (Day1), arithmetic mean” value is listed as 1.19*; the “Total AUC ratio (Day6) / (Day1), geometric mean” value was found to be 1.14. In data set [1], the “Truncated AUC ratio (Day2) / (Day1), arithmetic mean” value is reported as 1.19*; the “Truncated AUC ratio (Day2) / (Day1), geometric mean” value is 1.17; the “Truncated AUC ratio (Day6) / (Day1), arithmetic mean” value is reported as 1.19*; the “Truncated AUC ratio (Day6) / (Day1), geometric mean” value was determined as 1.14. For the same compound, the “Dose excreted in urine as intact acetaminophen” value in data set [2] (on average) is “less than 10 % of the dose”.
The term IC50 denotes the point on the concentration scale where inhibition reaches its midpoint. Read a low IC50 as inhibition by little substance. As for `NC(=O)c1nc(F)c[nH]c1=O` [Favipiravir, reference compound], the “Inhibition of acetaminophen glucuronide formation” value in data set [3] is listed as “did not inhibit”. This compound gave an IC50 at 15 min in data set [4] of 150 µM.
As for `NC(=O)c1nc(F)c(=O)[nH]c1O` [T‐705M1], the “Inhibition of acetaminophen glucuronide formation” value in data set [3] is reported as “did not inhibit; also recorded: no effect”.
